Source: USRE38257E1, “Piperdine derivatives and hypotensives containing the same” (Ajinomoto Co., Inc., priority 1988, dated 2003)

Tested on: male spontaneously hypertensive rats
Experiment: Decrease in systolic blood pressure in spontaneously hypertensive rats after intravenous bolus injection, indirect (tail-cuff) method
Assay type: in vivo, rat
Conditions: for Decrease in systolic blood pressure (mmHg) time after administration (hour) 0.5: 0.5 hour after administration; for Decrease in systolic blood pressure (mmHg) time after administration (hour) 4: 4 hours after administration
Protocol: As test animals, four male spontaneously hypertensive rats (weight 400 to 440 g) that were sufficiently adapted for feeding and in which hypertension was confirmed were used.
Physiological saline aqueous solution containing 2.5% Nicolle and 2.5% ethanol of sample was intravenously administered by bolus injection at a dose of 1 ml per 1 kg of body weight. Systolic blood pressure after administration was measured by the indirect (tail-cuff) method.

Molecule	Decrease in systolic blood pressure (mmHg) time after administration (hour) 0.5 (dose 10 mg/kg i.v. bolus)	Decrease in systolic blood pressure (mmHg) time after administration (hour) 4 (dose 10 mg/kg i.v. bolus)	Decrease in systolic blood pressure (mmHg) time after administration (hour) 0.5 (dose 3 mg/kg i.v. bolus)	Decrease in systolic blood pressure (mmHg) time after administration (hour) 4 (dose 3 mg/kg i.v. bolus)	Decrease in systolic blood pressure (mmHg) time after administration (hour) 0.5 (dose 1 mg/kg i.v. bolus)
Cl.O=C1CCCCN1CCCCN1CCC(=C2c3ccccc3C=Cc3ccccc32)CC1 [Example 268, N-(4-(4-(5H-Dibenzo[a,d]cyclohepten-5-ylidene)-1-piperidinyl)-1-butyl)-2-piperidone hydrochloride]	−29 mmHg	13 mmHg			
O=C(CCCC1CCCCC1)N1CCC(=C2c3ccccc3C=Cc3ccccc32)CC1 [Example 157, 1-(4-Cyclohexylbutanoyl)-4-(5H-dibenzo[a,d]cyclohepten-5-ylidene)piperidine]	−32 mmHg	−13 mmHg			
COc1ccccc1C=CCN1CCC(=C2c3ccccc3C=Cc3ccccc32)CC1.Cl [Example 347, 4-(5H-Dibenzo[a,d]cyclohepten-5-ylidene)-1-(2-methoxycinnamyl)piperidine hydrochloride]			−116 mmHg	−53 mmHg	
COc1ccc(CCCCN2CCC(=C3c4ccccc4C=Cc4ccccc43)CC2)cc1NC(C)=O.Cl [Example 282, 1-(3-Acetylamino-4-methoxyphenyl)-4-(4-(5H-dibenzo[a,d]cyclohepten-5-ylidene)-1-piperidinyl)butane hydrochloride]	−72 mmHg	−15 mmHg			
COc1ccc(CCCN2CCC(=C3c4ccccc4C=Cc4ccccc43)CC2)cc1OC.Cl [Example 201, 4-(5H-Dibenzo[a,d]cyclohepten-5-ylidene)-1-(-3-(3′,4′-dimethoxyphenyl)propyl)piperidine hydrochloride]	−118 mmHg	−21 mmHg			
Cl.Oc1cccc(C=CCN2CCC(=C3c4ccccc4C=Cc4ccccc43)CC2)c1 [Example 367, 4-(5H-Dibenzo[a,d]cyclohepten-5-ylidene)-1-(3-hydroxycinnamyl)piperidine hydrochloride]	−98 mmHg	−63 mmHg			
CC(=O)N(CCCN1CCC(=C2c3ccccc3C=Cc3ccccc32)CC1)C1CCCCC1.Cl [Example 267, N-Acetyl-N-(3-4-(5H-Dibenzo[a,d]cyclohepten-5-ylidene)-1-piperidinyl)-1-propylcyclohexylamine hydrochloride]	−40 mmHg	0 mmHg			
C1=Cc2ccccc2C(=C2CCN(CCCCCCC3CCCCC3)CC2)c2ccccc21.Cl [Example 154, 1-Cyclohexyl-6-(4-(5H-dibenzo[a,d]cyclohepten-5-ylidene)-1-piperidinyl)hexane hydrochloride]	−131 mmHg	−105 mmHg			
CCCCCCCCCCCCN1CCC(=C2c3ccccc3C=Cc3ccccc32)CC1.Cl [Example 4, 4-(5H-Dibenzo[a,d]cyclohepten-5-ylidene)-1-dodecylpiperidine hydrochloride]	−76 mmHg	0 mmHg			
CC(=O)Oc1ccc(C=CCN2CCC(=C3c4ccccc4C=Cc4ccccc43)CC2)cc1.Cl [Example 364, 1-(4-Acetoxycinnamyl)-4-(5H-Dibenzo[a,d]cyclohepten-5-ylidene)piperidine hydrochloride]					−113 mmHg
CC(=O)Nc1ccccc1CCCN1CCC(=C2c3ccccc3C=Cc3ccccc32)CC1.Cl.Cl [Example 252, 1-(2-Acetylaminophenyl)-3-(4-(5H-Dibenzo[a,d]cyclohepten-5-ylidene)-1-piperidinyl)propane dihydrochloride]	−23 mmHg	−5 mmHg			
COc1cc(C=CCN2CCC(=C3c4ccccc4C=Cc4ccccc43)CC2)ccc1O.Cl [Example 365, 4-(5H-Dibenzo[a,d]cyclohepten-5-ylidene)-1-(4-hydroxy-3-methoxycinnamyl)piperidine hydrochloridine]			−80 mmHg	−56 mmHg	
Cl.O=C(C=Cc1ccccc1)Nc1ccccc1SCCCN1CCC(=C2c3ccccc3C=Cc3ccccc32)CC1 [Example 37, 1-(3-(2-Cinnamoylaminophenylthio)-1-propyl)-4-(5H-dibenzo[a,d]-cyclohepten-5-ylidene)piperidine hydrochloride]	−78 mmHg	−36 mmHg			
CC(CC(=O)N1CCSCC1)N1CCC(=C2c3ccccc3C=Cc3ccccc32)CC1.Cl (stereo not drawn) [Example 246]	−34 mmHg	−4 mmHg			
C=CCC(CCN1CCC(=C2c3ccccc3C=Cc3ccccc32)CC1)C(=O)c1ccc(OC)c(OC)c1.Cl (stereo not drawn) [Example 276, 2-Allyl-4-(4-(5H-dibenzo[a,d]cyclohepten-5-ylidene)-1-piperidinyl)-3′,4′dimethoxybutyrophenone hydrochloride]	−24 mmHg	−1 mmHg			
CCCCCCCCCCCN1CCC(=C2c3ccccc3C=Cc3ccccc32)CC1.Cl [Example 136, 4-(5H-Dibenzo[a,d]cyclohepten-5-ylidene)-1-undecylpiperidine hydrochloride]	−100 mmHg	−40 mmHg			
C1=Cc2ccccc2C(=C2CCN(CCCC3CCCCN3)CC2)c2ccccc21.Cl.Cl (stereo not drawn) [Example 307, 3-(4-(5H-Dibenzo[a,d]cyclohepten-5-ylidene)-1-piperidinyl)-1-(2-piperidinyl)propane dihydrochloride]	−62 mmHg	−20 mmHg			
COc1cccc(C=CCN2CCC(=C3c4ccccc4C=Cc4ccccc43)CC2)c1.Cl [Example 348, 4-(5H-Dibenzo[a,d]cyclohepten-5-ylidene)-1-(3-methoxycinnamyl)piperidine hydrochloride]			−105 mmHg	−12 mmHg	
CC(=O)N1CCC(C=CCCCN2CCC(=C3c4ccccc4C=Cc4ccccc43)CC2)CC1.Cl.Cl [Example 321, 1-(N-Acetyl-4-piperidinyl)-5-(4-(5H-dibenzo[a,d]cyclohepten-5-ylidene)-1-piperidinyl)-1-pentene dihydrochloride]	−60 mmHg	−4 mmHg			
2-(2-4-Dibenzo[a,d]cyclohepten-5-ylidene)-1-piperidinyl)-1-ethyl)-5′,6′-dimethoxy-1-indanone hydrochloride [Example 261]	−123 mmHg	−11 mmHg			
